Data on two compounds can be found in PubChem BioAssay AID486 (Columbia University Molecular Screening Center, 2006).

Activity calls are given as the source filed them.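 Rule for the calls: active = ranking score of 15 or more out of 100, based on fitted potency or summed per-dose inhibition deviations; inactive = the rest.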

The experiment relates to exon1htt(103Q)-mCFP cells, aggregate imaging, high-content. Nature of the experiment: mutant huntingtin aggregate clearance potency, dose response, imaging, exon1htt(103Q)-mCFP cells, high-content imaging (AID 486).

A word on the IC50: it is the concentration needed to halve the response being measured. For the compound `COc1ccc(OC)c(C(=O)CSc2nnc(-c3ccc(OC)c(OC)c3)o2)c1`, the IC50 is > 8 µM (inactive). For the compound `Cc1ncoc1C(=O)Nc1cccc(Cl)c1C`, the IC50 was > 8 µM (inactive).
